Holding throughout (assay type): cell-based
For data set [1], the system named is HepG2. The data set can be described thus: Solid tumour and haematological malignancy assay (CellTiterGlo). The settings on record: Homo sapiens, HepG2, 72 h; for IC50: read-out: IC50 (absolute IC50); for Emax: read-out: MI %. The protocol: (§1) In vitro viability assay were performed to assess the effects of compounds on cell viability in selected cell lines over 72 hr using the CellTiterGlo (CTG, Promega-G7573) assay. […] Cell viability assay using CellTiterGlo in 96-well plate were performed. Compound treatment 72 hrs, standard growth conditions, duplicates. Compounds were dissolved to 40 mM with thawed 100%. […] After compounds were dissolved in media, media containing compounds were warmed to 37° C. in incubator and then compounds in media were added to cell plates ([…]) in duplicates. […] All compound solubilities were checked and recorded again, then the plates were transferred to CO2 tissue culture incubator immediately and incubated for 3 days. DMSO final concentration is 0.5%.

The subject of data set [2] is HEL92.1.7. The description is as above. The note with it: Homo sapiens, HEL 92.1.7, 72 h; for IC50: read-out: IC50 (absolute IC50); for Emax: read-out: MI %. How it is done: as §1
Data set [3] concerns MCF7. The data set is described as above. The note with it: Homo sapiens, MCF7, 72 h; for IC50: read-out: IC50 (absolute IC50); for Emax: read-out: MI %. How it is done:
as §1

Data set [4] deals with HL-60. The data set is described as above. The note with it: Homo sapiens, HL-60, 72 h; for IC50: read-out: IC50 (absolute IC50); for Emax: read-out: MI %. How it is done: as §1
Data set [5] concerns MiaPaCa-2. Described as above. The note with it: Homo sapiens, MIA PaCa-2, 72 h; for IC50: read-out: IC50 (absolute IC50); for Emax: read-out: MI %. The protocol: as §1
Data set [6] concerns KG-1. Described as above. The settings on record: Homo sapiens, KG-1, 72 h; for IC50: read-out: IC50 (absolute IC50); for Emax: read-out: MI %. How it is done:
as §1

The test system of data set [7] is CCRFCEM. Described as above. The settings on record: Homo sapiens, CCRF-CEM, 72 h; for IC50: read-out: IC50 (absolute IC50); for Emax: read-out: MI %. The protocol: as §1
For data set [8], the system named is HT29. The data set is described as above. The settings on record: Homo sapiens, HT-29, 72 h; for IC50: read-out: IC50 (absolute IC50); for Emax: read-out: MI %. The protocol:
as §1

In data set [9] the test system is K562. Described as above. The note with it: Homo sapiens, K562, 72 h; for IC50: read-out: IC50 (absolute IC50); for Emax: read-out: MI %. How it is done:
as §1

In data set [10] the test system is KG1a cells. The data set can be described thus: Annexin V/propidium iodide in vitro apoptosis assay (LD50). The note with it: 72 h.
Method: The KG1a cell line was maintained in RPMI medium (Invitrogen, Paisley, UK) supplemented with 100 units/ml penicillin, 100 μg/ml streptomycin and 20% foetal calf serum. Cells were subsequently aliquoted (10^5 cells/100 μl) into 96-well plates and were incubated at 37° C. in a humidified 5% carbon dioxide atmosphere for 72 h in the presence of nucleoside analogues and their respective proTides at concentrations that were experimentally determined for each series of compounds. In addition, control cultures were carried out to which no drug was added. Cells were subsequently harvested by centrifugation and were analyzed by flow cytometry using the Annexin V assay.
Cultured cells were harvested by centrifugation and then resuspended in 195 μl of calcium-rich buffer. Subsequently, 5 μl of Annexin V (Caltag Medsystems, Botolph Claydon, UK) was added to the cell suspension and cells were incubated in the dark for 10 mins prior to washing. Cells were finally resuspended in 190 μl of calcium-rich buffer together with 10 μl of propidium iodide. Apoptosis was assessed by dual-colour immunofluorescent flow cytometry as described previously.
The data obtained in these experiments were evaluated using one way ANOVA. […] LD50 values were calculated from the non-linear regression and line of best-fit analysis of the sigmoidal dose-response curves. […]
For data set [11], the system named is leukaemic stem cell (LSC) compartment within the KG1a cell line. Put plainly: Immunophenotypic identification of the leukaemic stem cell compartment. The settings on record: 72 h; for LSC targeting compared with the parent nucleoside: for compound A at 1 mM and above. How it is done: KG1a cells were cultured for 72 h in the presence of a wide range of concentrations of each compound assayed. Cells were then harvested and labelled with a cocktail of anti-lineage antibodies (PE-cy7), anti-CD34 (FITC), anti-CD38 (PE) and anti-CD123 (PERCP cy5). The sub-population expressing a LSC phenotype were subsequently identified and were expressed as a percentage of all viable cells left in the culture. The percentages of stem cells remaining were then plotted on a dose-response graph and the effects of the compounds were compared with each other, and with the parent nucleoside.
The data obtained in these experiments were evaluated using one way ANOVA. All data was confirmed as Gaussian or a Gaussian approximation using the omnibus K2 test. LD50 values were calculated from the non-linear regression and line of best-fit analysis of the sigmoidal dose-response curves. All statistical analyses were performed using Graphpad Prism 6.0 software (Graphpad Software Inc., San Diego, Calif.).

The structures appear in SMILES notation.

`Nc1nc(F)nc2c1ncn2[C@@H]1O[C@H](CO)C[C@H]1O` [2-F-Cordycepin, 3′deoxy-2-fluoroadenosine, reference compound]: the IC50 lay within 15 to 100 µM in [1]; 5 to 15 µM in [2]; 15 to 100 µM in data set [3]; 5 to 15 µM in data set [4]; 15 to 100 µM in [5]; 5 to 15 µM in data set [6]. Besides, the IC50 in data set [7], in data set [8] and in data set [9] was 15 to 100 µM throughout. The Emax in data set [1] is 82%; in data set [2], 99%; in [3] it was 97%; in [4], 96%; in data set [5], 100%; in data set [6], 99%. Besides, the Emax is 101% in [7], 73% in [8] and 97% in [9]. In addition, the “in vitro drug sensitivity / potency (LD50 comparison, FIG. 1)” value in data set [10] is listed as “significantly more potent than Cordycepin”.

In the case of `C[C@H](NP(=O)(OC[C@@H]1C[C@H](O)[C@H](n2cnc3c(N)nc(F)nc32)O1)Oc1cccc2ccccc12)C(=O)OCc1ccccc1` (stereo partly drawn) [Compound O, 2-Fluoro-3′-deoxyadenosine-5′-O-[1-naphthyl(benzyloxy-L-alaninyl)] phosphate], in data set [11] (Lin−/CD34+/CD38−/CD123+), the “reduction of LSCs as a proportion of the cancer cells in culture (ability to target LSCs)” value was “able to bring about a reduction in the proportion of LSCs”. In addition, the “LSC targeting compared with the parent nucleoside” value in data set [11] is recorded as “not significantly different to 2-F-Cordycepin”. The IC50 in data set [1] fell in the range of 5 to 15 µM; in data set [2], 0.1 to 5 µM; in data set [3], 0.1 to 5 µM; in data set [4], 0.1 to 5 µM; in data set [5] it was 0.1 to 5 µM; in [6], 5 to 15 µM. Also, the IC50 fell in the range of 0.1 to 5 µM in data set [7], 15 to 100 µM in data set [8] and 0.1 to 5 µM in data set [9]. The Emax in data set [1] came to 83%; in [2] it was 100%; in data set [3], 95%; in [4], 101%; in data set [5], 100%; in data set [6], 99%. Also, the Emax in data set [7] was found to be 99%; in data set [8] it was 84%; in [9], 99%.

For `CCCCCCOC(=O)[C@H](C)NP(=O)(OC[C@@H]1C[C@@H](O)[C@H](n2cnc3c(N)nc(F)nc32)O1)Oc1ccccc1` (stereo partly drawn) [R, (2S)-hexyl 2-(((((2S,4R,5R)-5-(6-amino-2-fluoro-9H-purin-9-yl)-4-hydroxytetrahydrofuran-2-yl)methoxy)(phenoxy)phosphoryl)amino)propanoate], the “LSC targeting compared with the parent nucleoside” value in data set [11] is on record as “significantly improved when compared with the parental nucleoside”. In addition, the IC50 in data set [1] was 5 to 15 µM; in [2], 0.1 to 5 µM; in [3], 0.1 to 5 µM; in [4] it was 0.1 to 5 µM; in data set [5] it was 5 to 15 µM; in data set [6] it was 0.1 to 5 µM. The IC50 in [7] is 0.1 to 5 µM; in data set [8] it was 15 to 100 µM; in data set [9] it was 5 to 15 µM. For the same molecule, the Emax in data set [1] amounted to 82%; in [2] it was 99%; in [3] it was 87%; in data set [4] it was 100%; in [5] it was 98%; in data set [6] it was 96%. Also, the Emax in data set [7] was 100%; in [8] it was 92%; in data set [9] it was 96%.

Consider `CCCCCOC(=O)[C@H](CC(C)C)NP(=O)(OC[C@@H]1C[C@H](O)[C@H](n2cnc3c(N)nc(F)nc32)O1)Oc1cccc2ccccc12` (stereo partly drawn) [Compound Q, 2-Fluoro-3′-deoxyadenosine-5′-O-[1-naphthyl(1-pentyloxy-L-leucinyl)] phosphate], for which the “LSC targeting compared with the parent nucleoside” value in data set [11] was “significantly improved when compared with the parental nucleoside”. In addition, the IC50 in data set [1] was 0.1 to 5 µM; in data set [2] it was 0.1 to 5 µM; in data set [3] it was 0.1 to 5 µM; in data set [4], 0.1 to 5 µM; in data set [5], 0.1 to 5 µM; in [6] it was 5 to 15 µM. Besides, the IC50 was in the range of 0.1 to 5 µM in data set [7], 15 to 100 µM in [8] and 0.1 to 5 µM in [9]. The Emax in data set [1] came to 94%; in [2] it was 99%; in data set [3], 99%; in data set [4], 99%; in [5], 100%; in data set [6] it was 103%. Further, the values for the Emax in data set [7], in data set [8] and in data set [9] were 101%, 88% and 100%, respectively.

For the origin of these results see patent US10570168B2, “2′ and/or 5′ amino-acid ester phosphoramidate 3′-deoxy adenosine derivatives as anti- cancer compounds” (NuCana plc, priority 2014, dated 2020).
